Laboratory results as given in US20240382493A1, “METHODS FOR TREATING SYSTEMIC MASTOCYTOSIS AND GASTROINTESTINAL STROMAL TUMORS” (Blueprint Medicines Corporation, priority 2023, published 2024).
Like-named read-outs stand apart in the source and are kept apart here.

What was measured:
[1] = cited from earlier work
clinical = conditions: human, in vivo, po, Tmax median treatment difference
Text: (§1) Subjects with chronic, stable, severe HI with features of cirrhosis due to any etiology were enrolled, and the Child-Pugh scale was used to classify the severity of liver disease. The scale employs 5 clinical measures of liver disease. Each measure is scored 1 to 3, with 3 indicating most severe derangement. Subjects' scores of 10 to 15 on this scale are classified as having severe hepatic impairment.
(§2) The control subjects were matched in a 1:1 ratio to subjects with severe hepatic impairment for age, body mass index (BMI), and sex variables.

[2] = patients with severe hepatic impairment; cited from earlier work
[3] = Clinical study BLU-285-0107: single 100 mg oral dose, severe hepatic impairment vs matched control subjects, plasma PK; conditions: single oral 100 mg; for CL/F GeoMean / AUC(0-t) / AUC(0-inf) / Cmax / Tmax / Vd/F / half-life: total plasma avapritinib; for CLu/F GeoMean / Cumax GeoMean / AUC: unbound plasma avapritinib; for AUC(0-t) / AUC(0-inf) / AUC / Cmax / Tmax / Vd/F / half-life: human, plasma, po, 100 mg; for AUC(0-inf): AUC0-∞ GeoMean; for Cmax: Cmax GeoMean; for Tmax: Tmax median; for Vd/F: Vz/F GeoMean; for half-life: t1/2 arithmetic mean;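 as to all read-outs here: severe hepatic impairment meant chronic stable cirrhosis with a Child-Pugh score of 10–15, and each such subject was paired one-to-one with a control of similar age, BMI and sex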
Text: as §1, §2

[4] = Post-hoc analysis of pooled data of 343 patients: clearance by hepatic function; type: in vivo, human; conditions: pooled data of 343 patients (284 normal, 53 mild HI, 6 moderate HI)
Text: As per the current avapritinib labeling, no dose adjustment is recommended for patients with mild or moderate HI.

In the case of N#Cc1ccccc1-c1cc(-c2ccccn2)cn(-c2ccccc2)c1=O [perampanel], the “AUC higher compared to normal” value ([1]; patients with mild HI) is listed as 50% and the “AUC higher compared to normal” value ([1]; patients with moderate HI) is listed as 2.5 fold.
In the case of Cn1cc(-c2cc3c(N4CCN(c5ncc([C@@](C)(O)c6ccc(F)cc6)cn5)CC4)ncnn3c2)cn1 [Metabolite B], the Tmax (clinical) is reported as 80 h.
In the case of CCOc1cc2ncc(C#N)c(Nc3ccc(OCc4ccccn4)c(Cl)c3)c2cc1NC(=O)/C=C/CN(C)C [neratinib], the “exposure (AUC) increased” value [2] is listed as 181% and the “exposure (Cmax) increased” value [2] is listed as 173%.
With Cn1cc(-c2cc3c(N4CCN(c5ncc([C@@](C)(N)c6ccc(F)cc6)cn5)CC4)ncnn3c2)cn1 [Avapritinib, (S)-1-(4-fluorophenyl)-1-(2-(4-(6-(1-methyl-1H-pyrazol-4-yl)pyrrolo [2,1-f][1,2,4]triazin-4-yl)piperazin-yl)pyrimidin-5-yl)ethan-1-amine] the “CL/F GeoMean” value ([3]; Matched Control) was 15.21 L/h, the “CLu/F GeoMean” value ([3]; Matched Control) was 1534 L/h and the “Cumax GeoMean” value ([3]; Matched Control) was 1.197 ng/mL. For the same molecule, the “CL/F GeoMean” value ([3]; Severe HI) was 12.72 L/h, the “CLu/F GeoMean” value ([3]; Severe HI) was 950.6 L/h and the “Cumax GeoMean” value ([3]; Severe HI) was 1.293 ng/mL. For the same molecule, the AUC(0-t) ([3]; AUC0-24 GeoMean, Matched Control) was 1610 ng·h/mL, the AUC(0-t) ([3]; AUC0-24 GeoMean, Severe HI) was 1370 ng·h/mL and the AUC(0-t) ([3]; AUC0-240 GeoMean, Matched Control) was 6030 ng·h/mL. For the same molecule, the AUC(0-t) ([3]; AUC0-240 GeoMean, Severe HI) was 6500 ng·h/mL, the AUC(0-inf) ([3]; Matched Control) was 6570 ng·h/mL and the AUC(0-inf) ([3]; Severe HI) was 7860 ng·h/mL. It also gave an AUC ([3]; AUCu0-24 GeoMean, Matched Control) of 15.9 ng·h/mL, an AUC ([3]; AUCu0-24 GeoMean, Severe HI) of 18.3 ng·h/mL and an AUC ([3]; AUCu0-240 GeoMean, Matched Control) of 59.8 ng·h/mL. The AUC ([3]; AUCu0-240 GeoMean, Severe HI) was 87 ng·h/mL, the AUC ([3]; AUCu0-∞ GeoMean, Matched Control) was 65.2 ng·h/mL and the AUC ([3]; AUCu0-∞ GeoMean, Severe HI) was 105 ng·h/mL. For the same molecule, the Cmax ([3]; Matched Control) was 121 ng/mL, the Cmax ([3]; Severe HI) was 96.6 ng/mL and the Tmax ([3]; Matched Control) was 2.25 h. For the same molecule, the Tmax ([3]; Severe HI) was 1.5 h, the Vd/F ([3]; Matched Control) was 1330 L and the Vd/F ([3]; Severe HI) was 1710 L. The half-life ([3]; Matched Control) was 64.1 h, the half-life ([3]; Severe HI) was 96.6 h and the “clearance between patients with normal liver function, mild HI and moderate HI” value [4] was “similar”.
For Cn1cc(-c2cc3c(N4CCN(c5ncc([C@](C)(O)c6ccc(F)cc6)cn5)CC4)ncnn3c2)cn1 [Metabolite A], the Tmax (clinical) was 14.1 h.
